This note sets out measurements from patent publication US12570659B2, “Bicyclic heteroaryl compounds useful as IRAK4 inhibitors” (BRISTOL-MYERS SQUIBB COMPANY, priority 2019, dated 2026).

In one assay the target is IRAK4 (Homo sapiens (Human), UniProt Q9NWZ3). The assay is described as follows: IRAK4 Inhibition Assay. It counts as biochemical. The conditions noted are these: ATP 500 μM; IRAK4 0.6 nM; 60 min room temperature. The method, then:
IRAK4 Inhibition Assay The assays were performed in U-bottom 384-well plates. […] The reaction was initiated by the combination of IRAK4 with substrates and test compounds. The reaction mixture was incubated at room temperature for 60 min. and terminated by adding 45 μL of 35 mM EDTA to each sample. The reaction mixture was analyzed on the Caliper LABCHIP® 3000 (Caliper, Hopkinton, MA) by electrophoretic separation of the fluorescent substrate and phosphorylated product. Inhibition data were calculated by comparison to no enzyme control reactions for 100% inhibition and vehicle-only reactions for 0% inhibition.

The next assay deals with JAK3 kinase (Homo sapiens (Human), UniProt P52333). The assay is described as follows: JAK3 Homogeneous Time Resolved Fluorescence (HTRF) Assay. In kind it is binding. The settings on record: for IC50: competition binding with fluorescein-labeled ATP competitive probe; for Ratio of JAK3 IC50 to IRAK4 IC50: selectivity for IRAK4 over JAK3. Here is the method:
JAK3 Homogeneous Time Resolved Fluorescence (HTRF) Assay
A time resolved FRET-based competition binding assay was used to assess test article binding to JAK3 kinase. His-tagged or GST-tagged kinase at a concentration of 1 nM was incubated with 0.2 nM Tb-labeled detection antibody (anti-His or anti-GST), test compound, and fluorescein-labeled ATP competitive probe at a concentration corresponding to the probe's equilibrium dissociation constant for one hour. Fluorescence at 495 nm and 520 nm was measured using an EnVision microplate reader to quantify FRET between Tb-labeled detection antibody and fluorescein-labeled probe. Background subtracted FRET ratios were normalized to the maximum signal obtained in the absence of test compound. These values were converted to a percent inhibition. Percent inhibition was determined for test compounds at 11 concentrations. The IC50, defined as the concentration of the competing test compound needed to reduce specific binding of the probe by 50%, was calculated using the 4 parameter logistic equation to fit the data.

Chain of JAK3 kinase (P52333 whole entry): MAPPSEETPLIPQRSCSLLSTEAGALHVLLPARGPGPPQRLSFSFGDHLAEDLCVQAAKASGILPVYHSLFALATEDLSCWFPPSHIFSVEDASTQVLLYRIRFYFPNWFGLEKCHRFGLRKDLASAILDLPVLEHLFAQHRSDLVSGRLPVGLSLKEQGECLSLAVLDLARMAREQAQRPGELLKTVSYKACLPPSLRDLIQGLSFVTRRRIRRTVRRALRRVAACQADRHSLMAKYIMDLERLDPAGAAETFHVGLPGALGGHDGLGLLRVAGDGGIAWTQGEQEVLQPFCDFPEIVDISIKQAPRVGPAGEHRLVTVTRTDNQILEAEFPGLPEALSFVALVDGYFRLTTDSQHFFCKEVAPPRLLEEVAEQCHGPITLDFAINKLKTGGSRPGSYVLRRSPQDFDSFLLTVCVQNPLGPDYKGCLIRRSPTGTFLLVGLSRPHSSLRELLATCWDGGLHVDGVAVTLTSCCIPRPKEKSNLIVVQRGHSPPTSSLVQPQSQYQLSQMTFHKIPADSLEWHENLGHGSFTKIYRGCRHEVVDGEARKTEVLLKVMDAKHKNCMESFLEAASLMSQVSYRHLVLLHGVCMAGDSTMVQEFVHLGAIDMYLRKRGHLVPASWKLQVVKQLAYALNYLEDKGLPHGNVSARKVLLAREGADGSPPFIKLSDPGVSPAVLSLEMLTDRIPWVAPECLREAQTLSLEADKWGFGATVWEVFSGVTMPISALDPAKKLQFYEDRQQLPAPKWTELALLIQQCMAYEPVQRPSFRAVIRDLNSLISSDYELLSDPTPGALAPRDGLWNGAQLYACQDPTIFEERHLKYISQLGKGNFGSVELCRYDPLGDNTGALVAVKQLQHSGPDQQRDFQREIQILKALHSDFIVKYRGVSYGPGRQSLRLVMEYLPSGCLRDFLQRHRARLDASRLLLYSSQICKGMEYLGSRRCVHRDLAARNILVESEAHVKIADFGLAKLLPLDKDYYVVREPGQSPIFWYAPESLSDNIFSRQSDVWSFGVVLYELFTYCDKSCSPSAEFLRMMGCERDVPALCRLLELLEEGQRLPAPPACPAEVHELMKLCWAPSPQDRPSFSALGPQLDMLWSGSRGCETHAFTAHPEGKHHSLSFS
Chain of IRAK4 (Q9NWZ3 whole entry, species assumed): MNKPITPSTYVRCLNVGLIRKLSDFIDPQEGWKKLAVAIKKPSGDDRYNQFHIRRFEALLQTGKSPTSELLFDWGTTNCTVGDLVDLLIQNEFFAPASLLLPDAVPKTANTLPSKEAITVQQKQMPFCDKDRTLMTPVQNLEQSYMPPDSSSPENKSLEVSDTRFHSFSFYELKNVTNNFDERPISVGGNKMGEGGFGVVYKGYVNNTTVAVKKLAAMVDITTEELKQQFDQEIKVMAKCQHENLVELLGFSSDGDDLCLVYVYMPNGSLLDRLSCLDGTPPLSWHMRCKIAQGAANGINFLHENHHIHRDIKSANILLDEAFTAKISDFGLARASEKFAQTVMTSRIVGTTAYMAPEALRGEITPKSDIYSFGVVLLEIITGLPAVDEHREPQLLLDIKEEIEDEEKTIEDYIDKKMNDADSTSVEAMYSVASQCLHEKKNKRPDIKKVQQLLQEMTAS

Consider `CC(=O)N1CCC(NC(=O)c2cnn3cc(-c4ccncc4F)nc3c2NC(C)C)CC1` [Example 112, N-(1-acetylpiperidin-4-yl)-2-(3-fluoropyridin-4-yl)-8-(isopropylamino)imidazo[1,2-b]pyridazine-7-carboxamide], for which, on IRAK4, the IC50 was found to be 11 nM. At JAK3 kinase, the IC50 is greater than 10000 nM and the “Ratio of JAK3 IC50 to IRAK4 IC50” value is given as greater than 909.
Regarding `COc1cc(-c2cc3c(NC(C)C)c(C(=O)N[C@H]4CC[C@H](O)CC4)cnn3c2)c(F)cn1` [Example 57, 6-(5-fluoro-2-methoxypyridin-4-yl)-N-((1r,4r)-4-hydroxycyclohexyl)-4-(isopropylamino)pyrrolo[1,2-b]pyridazine-3-carboxamide], the IC50 at IRAK4 is 20 nM. In addition, at JAK3 kinase, the IC50 was greater than 50000 nM and the “Ratio of JAK3 IC50 to IRAK4 IC50” value is greater than 2500.
As to `CC(C)Nc1c(C(=O)NC[C@@H](F)C(C)(C)O)cnc2cc(-c3cncnc3)nn12` [Example 127, (R)—N-(2-fluoro-3-hydroxy-3-methylbutyl)-7-(isopropylamino)-2-(pyrimidin-5-yl)pyrazolo[1,5-a]pyrimidine-6-carboxamide], the results for the half-inhibitory concentration (IC50) at IRAK4 and at JAK3 kinase were 170 nM and greater than 10000 nM, respectively. On JAK3 kinase, the “Ratio of JAK3 IC50 to IRAK4 IC50” value is greater than 59.
In the case of `CC(C)Nc1c(C(=O)NCCN2CCOCC2)cnn2cc(-c3ccncc3F)nc12` [Example 106, 2-(3-fluoropyridin-4-yl)-8-(isopropylamino)-N-(2-morpholinoethyl)imidazo[1,2-b]pyridazine-7-carboxamide], the IC50 on IRAK4 was found to be 22 nM. For the same molecule, on JAK3 kinase, the IC50 is greater than 50000 nM and the “Ratio of JAK3 IC50 to IRAK4 IC50” value is given as greater than 2273.
As for `CC(C)Nc1c(C(=O)NC[C@@H](F)C(C)(C)O)cnc2cc(C3CC3)nn12` [Example 147, (R)-2-cyclopropyl-N-(2-fluoro-3-hydroxy-3-methylbutyl)-7-(isopropylamino)pyrazolo[1,5-a]pyrimidine-6-carboxamide], on IRAK4, the IC50 was determined as 420 nM. In addition, on JAK3 kinase, the half-maximal inhibitory concentration (IC50) is greater than 50000 nM and the “Ratio of JAK3 IC50 to IRAK4 IC50” value is greater than 119.
In the case of `CC(C)(O)[C@H](F)CNC(=O)c1cnn2cc(-c3ccc(C#N)c(F)c3)cc2c1NC1CCOCC1` [Example 12, (R)-6-(4-cyano-3-fluorophenyl)-N-(2-fluoro-3-hydroxy-3-methylbutyl)-4-((tetrahydro-2H-pyran-4-yl)amino)pyrrolo[1,2-b]pyridazine-3-carboxamide], the IC50 was 250 nM on IRAK4 and greater than 50000 nM on JAK3 kinase. For the same molecule, the “Ratio of JAK3 IC50 to IRAK4 IC50” value on JAK3 kinase is listed as greater than 200.
With `CC(C)Nc1c(C(=O)NC[C@@H](F)C(C)(C)O)cnn2cc(-c3ccncc3)nc12` [Example 100, (R)—N-(2-fluoro-3-hydroxy-3-methylbutyl)-8-(isopropylamino)-2-(pyridin-4-yl)imidazo[1,2-b]pyridazine-7-carboxamide], the half-maximal inhibitory concentration (IC50) at IRAK4 was 15 nM; on JAK3 kinase it was greater than 50000 nM. Further, the “Ratio of JAK3 IC50 to IRAK4 IC50” value at JAK3 kinase is listed as greater than 3333.
Take `Cc1cc(F)ncc1-c1cn2ncc(C(=O)N[C@H]3C[C@H](C(C)(C)O)C3)c(NC(C)C)c2n1` [Example 113, 2-(6-fluoro-4-methylpyridin-3-yl)-N-((1r,3r)-3-(2-hydroxypropan-2-yl)cyclobutyl)-8-(isopropylamino) imidazo[1,2-b]pyridazine-7-carboxamide]: on IRAK4, the 50% inhibitory concentration (IC50) worked out at 96 nM. Further, at JAK3 kinase, the 50% inhibitory concentration (IC50) is greater than 50000 nM and the “Ratio of JAK3 IC50 to IRAK4 IC50” value was greater than 521.
For `CC(C)Nc1c(C(=O)NC[C@@H](F)C(C)(C)O)cnn2cc(-c3cccc(CN4CCOCC4)c3)cc12` [Example 14, (R)—N-(2-fluoro-3-hydroxy-3-methylbutyl)-4-(isopropylamino)-6-(3-(morpholinomethyl)phenyl) pyrrolo[1,2-b]pyridazine-3-carboxamide] the same measures were 1670 nM, greater than 10000 nM and greater than 6.
On to `CC(C)(O)[C@H](F)CNC(=O)c1cnn2cc(-c3cccnc3)cc2c1NC1CCCC1` [Example 30, (R)-4-(cyclopentylamino)-N-(2-fluoro-3-hydroxy-3-methylbutyl)-6-(pyridin-3-yl)pyrrolo[1,2-b]pyridazine-3-carboxamide], for which the IC50 at IRAK4 came out at 55 nM. Further, on JAK3 kinase, the half-inhibitory concentration (IC50) is greater than 10000 nM and the “Ratio of JAK3 IC50 to IRAK4 IC50” value is listed as greater than 182.
Regarding `CC(=O)N[C@H]1CC[C@H](NC(=O)c2cnn3cc(-c4cn[nH]c4)cc3c2NC(C)C)CC1` [Example 61, N-((1r,4r)-4-acetamidocyclohexyl)-4-(isopropylamino)-6-(1H-pyrazol-4-yl)pyrrolo[1,2-b]pyridazine-3-carboxamide], at IRAK4, the IC50 is 11 nM. Moreover, on JAK3 kinase, the IC50 is greater than 50000 nM and the “Ratio of JAK3 IC50 to IRAK4 IC50” value was greater than 4545.
For `CC(C)Nc1c(C(=O)NC[C@@H](F)C(C)(C)O)cnn2cc(-c3cncs3)nc12` [Example 102, (R)—N-(2-fluoro-3-hydroxy-3-methylbutyl)-8-(isopropylamino)-2-(thiazol-5-yl)imidazo[1,2-b]pyridazine-7-carboxamide], the IC50 at IRAK4 is 22 nM. Also, on JAK3 kinase, the half-inhibitory concentration (IC50) is greater than 50000 nM and the “Ratio of JAK3 IC50 to IRAK4 IC50” value was greater than 2273.
In the case of `CC(C)(O)CCNc1c(C(=O)NC[C@@H](F)C(C)(C)O)cnn2cc(-c3ccc(F)nc3)cc12` [Example 21, (R)—N-(2-fluoro-3-hydroxy-3-methylbutyl)-6-(6-fluoropyridin-3-yl)-4-((3-hydroxy-3-methylbutyl)amino)pyrrolo[1,2-b] pyridazine-3-carboxamide], the IC50 at IRAK4 was 170 nM; on JAK3 kinase, greater than 50000 nM. Moreover, on JAK3 kinase, the “Ratio of JAK3 IC50 to IRAK4 IC50” value is on record as greater than 294.
As for `Cc1ccccc1-c1cc2ncc(C(=O)NC[C@@H](F)C(C)(C)O)c(NC(C)C)n2n1` [Example 136, (R)—N-(2-fluoro-3-hydroxy-3-methylbutyl)-7-(isopropylamino)-2-(o-tolyl)pyrazolo[1,5-a]pyrimidine-6-carboxamide], the IC50 on IRAK4 was found to be 510 nM. In addition, on JAK3 kinase, the IC50 is greater than 10000 nM and the “Ratio of JAK3 IC50 to IRAK4 IC50” value is greater than 20.
Turning to `CC(C)Nc1c(C(=O)NC[C@@H](F)C(C)(C)O)cnc2cc(-c3ccncc3F)nn12` [Example 137, (R)—N-(2-fluoro-3-hydroxy-3-methylbutyl)-2-(3-fluoropyridin-4-yl)-7-(isopropylamino) pyrazolo[1,5-a]pyrimidine-6-carboxamide], the IC50 at IRAK4 is 8.4 nM. On JAK3 kinase, the IC50 was greater than 10000 nM and the “Ratio of JAK3 IC50 to IRAK4 IC50” value was greater than 1190.
With `Cc1cnccc1-c1cc2c(NC(C)C)c(C(=O)NCCC(C)(C)O)cnn2c1` [Example 72, N-(3-hydroxy-3-methylbutyl)-4-(isopropylamino)-6-(3-methylpyridin-4-yl)pyrrolo[1,2-b]pyridazine-3-carboxamide], the IC50 on IRAK4 turned out to be 70 nM. On JAK3 kinase, the IC50 was greater than 50000 nM and the “Ratio of JAK3 IC50 to IRAK4 IC50” value is recorded as greater than 714.
Turning to `CC(C)Nc1c(C(=O)NC[C@@H](F)C(C)(C)O)cnc2cc(-c3cccc(Cl)n3)nn12` [Example 153, (R)-2-(6-chloropyridin-2-yl)-N-(2-fluoro-3-hydroxy-3-methylbutyl)-7-(isopropylamino) pyrazolo[1,5-a]pyrimidine-6-carboxamide], the IC50 at IRAK4 turned out to be 1230 nM. Besides, on JAK3 kinase, the 50% inhibitory concentration (IC50) was greater than 10000 nM and the “Ratio of JAK3 IC50 to IRAK4 IC50” value is greater than 8.
For `Cc1cc(-c2cc3c(NCCC(C)(C)O)c(C(=O)NC[C@@H](F)C(C)(C)O)cnn3c2)ccn1` [Example 23, (R)—N-(2-fluoro-3-hydroxy-3-methylbutyl)-4-((3-hydroxy-3-methylbutyl)amino)-6-(2-methylpyridin-4-yl)pyrrolo[1,2-b]pyridazine-3-carboxamide] the same measures were 110 nM, greater than 50000 nM and greater than 455.
The corresponding values for `CC(C)Nc1c(C(=O)NC[C@@H](F)C(C)(C)O)cnn2cc(C#N)cc12` [Example 35, (R)-6-cyano-N-(2-fluoro-3-hydroxy-3-methylbutyl)-4-(isopropylamino)pyrrolo[1,2-b]pyridazine-3-carboxamide] are 190 nM, greater than 50000 nM and greater than 263.
For `CC(=O)N[C@H]1CC[C@H](NC(=O)c2cnn3cc(-c4ccc(C(N)=O)cc4F)cc3c2NC(C)C)CC1` [Example 76, N-((1r,4r)-4-acetamidocyclohexyl)-6-(4-carbamoyl-2-fluorophenyl)-4-(isopropylamino) pyrrolo[1,2-b]pyridazine-3-carboxamide] the same measures were 92 nM, greater than 50000 nM and greater than 543.
With `CC(C)Nc1c(C(=O)NC[C@@H](F)C(C)(C)O)cnc2cc(-c3cc[nH]c(=O)c3)nn12` [Example 154, (R)—N-(2-fluoro-3-hydroxy-3-methylbutyl)-7-(isopropylamino)-2-(2-oxo-1,2-dihydropyridin-4-yl)pyrazolo[1,5-a]pyrimidine-6-carboxamide], on IRAK4, the IC50 is 93 nM. Further, on JAK3 kinase, the 50% inhibitory concentration (IC50) is greater than 50000 nM and the “Ratio of JAK3 IC50 to IRAK4 IC50” value is recorded as greater than 538.

The term IC50 denotes the concentration at which inhibition is half-maximal.
